In one assay the test system is 5-lipoxygenase. Description: Resident murine peritoneal macrophage assay, LTC4 (5-lipoxygenase). The assay is classed as cell-based, murine (female Swiss Webster mice). As to conditions: for inhibition at 0.5 µM: Peritoneal macrophage. How it is done: (§1) The ability of the compounds of the invention to act as inhibitors of the enzymes 5-lipoxygenase and cyclooxygenase is measured in the resident murine peritoneal macrophage assay.
Resident peritoneal macrophages are collected from female Swiss Webster mice (49 days old, 20-25 gms, Buckshire) by lavaging with 7-8 ml Hanks Balanced Salt Solution (HBSS) without Ca^++ and Mg^++ (GIBCO). The lavage fluid from several mice is pooled and centrifuged at 4° C. for 10 minutes at 400 xg.
(§2) Residual serum and cellular debris are removed from the monolayers by washing 3x with 2 ml HBSS containing Ca^++ and Mg^++. Macrophages are preincubated for 5 minutes with 1 ml serum-free M199 containing 10 μl dimethyl sulfoxide (DMSO) vehicle or test compound prior to cell activation with zymosan ([…]) or arachidonic acid (AA) (2 μM). After 2 hours, the supernatants are removed and either assayed for LTC4 and PGE2 by radioimmunoassay (RIA) directly or stored at -20° C. In all cases, results are expressed as ng metabolite/4×10^6 cells.
(§3) Raw data (dpm) may be stored directly onto an "Autostart" tape using the HP85 in room C-096. The raw data are converted to ng metabolite/4-10^6cells using the standard curve by a "RIANAL" program (HP85) or a "NONLIN" program (HP9816). Results are then expressed as percent inhibition of zymosan induced, leukotriene or prostaglandin synthesis (control) using the equation: [formula]

For another assay, the system named is cyclooxygenase. Description: Resident murine peritoneal macrophage assay, PGE2 (cyclooxygenase). It is filed as cell-based, murine (female Swiss Webster mice). Particulars: mouse peritoneal macrophages; for inhibition at 0.5 µM: Peritoneal macrophage. Here is the method:
as §1
Resident peritoneal macrophages are collected from female Swiss Webster mice (49 days old, 20-25 gms, Buckshire) by lavaging with 7-8 ml Hanks Balanced Salt Solution (HBSS) without Ca^++ and Mg^++ (GIBCO). The lavage fluid from several mice is pooled and centrifuged at 4° C. for 10 minutes at 400 xg. The cell pellet is resuspended in Medium 199 (GIBCO) with HEPES buffer containing 100 μg/ml gentamicin. Two ml of the cell suspension (4×10^6 cells) are then plated on 35 mm culture dishes (Nunc).
A macrophage monolayer is established after a 1-1.5 hour incubation of the cells at 37° C. in an atmosphere of 95% O2 and 5% CO2. The monolayers are washed 2x with 2 ml HBDSS, containing Ca^++ and Mg^++ after which 2 ml Medium 199 supplemented with 10% freshly thawed heat-inactivated fetal bovine serum and 100 μg/ml gentamicin is added for an overnight incubation.
as §2, §3

The target in the next assay is T1, Human Synovial PLA2 (Homo sapiens, UniProt P14555).
T1 construct: Purified human synovial fluid; from tissue; host or cells: human synovial fluid (purified)
T1 sequence (P14555 21-144): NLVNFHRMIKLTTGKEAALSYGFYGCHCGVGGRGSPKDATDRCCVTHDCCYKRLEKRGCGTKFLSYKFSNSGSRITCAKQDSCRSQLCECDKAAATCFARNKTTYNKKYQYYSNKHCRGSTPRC
The assay can be described thus: In vitro isolated phospholipase A2 assay, arachidonic acid release from 3H-AA E. coli substrate, human synovial fluid PLA2. The assay is classed as biochemical. Particulars: read-out: % Inhibition at 10 μM HSF (human synovial fluid). How it is done: (§4) The compounds of the invention are tested in an in vitro isolated phospholipase A2 assay to determine the ability of the test compounds to inhibit the release of arachidonic acid from an arachidonic acid-containing substrate by the action of phospholipase A2 enzyme from human and non-human sources.
(§5) Into a 15 mL polypropylene tube are added the following: […]
(§6) ^3 H-AA E. coli substrate^1
(§7) Tris-HCl (0.5M) pH 7.5^3
(§8) PLA2 25 Volume yielding 12%
(§9) *pre-incubate at room temperature 30 min prior to substrate addition.
(§10) ^1 Prepared by adding 2 mL deionized and distilled water to 2 mL
(§11) ^5 Stock 10 mM prepared in dimethyl sulfoxide. Make 1:2 dilution with
(§12) ^6 Two human PLA2 enzymes are used:
b) Purified human synovial fluid.
(§13) Incubate the 100μL reaction mixture for 10 minutes at 37° C. in a shaking water bath. The reaction is terminated by the addition of 2 mL tetrahydrofuran, followed by vortexing. NH2 columns ([…]--Analytichem International) are conditioned with 0.5 mL tetrahydrofuran followed by 0.5 mL tetrahydrofuran/water (2 mL:0.1 mL, v/v).
(§14) The sample is loaded onto the columns and slowly drawn through them. The hydrolyzed arachidonic acid retained in the columns is eluted therefrom with 1 mL tetrahydrofuran/glacial acetic acid (2%). The arachidonic acid is transferred to scintillation vials and quantitated by β-counting analysis. […]

The next assay addresses T2, Human Platelet PLA2 (Homo sapiens, UniProt P14555).
T2 construct: Semipurified human platelet acid extract PLA2; from tissue; host or cells: human platelets (semipurified acid extract)
T2 sequence (P14555 21-144): T1 sequence (P14555 21-144)
The assay can be described thus: In vitro isolated phospholipase A2 assay, arachidonic acid release from 3H-AA E. coli substrate, human platelet PLA2. The assay is classed as biochemical. Particulars: read-out: % Inhibition at 10 μM HP (human platelet). Here is the method:
as §4, §5, §6, §7, §8, §9, §10, §11, §12
a) Semipurified human platelet acid extract PLA2 (in 10 Mm sodium
as §13, §14

The test system of assay [1] is LTB4 biosynthesis in human neutrophils. Description: Inhibition of LTB4 biosynthesis in purified human neutrophils (in vitro phospholipase A2 assay). As to conditions: Neutrophil, A23187 stimulated human PMN. The assay is classed as cell-based. How it is done: (§15) The compounds of the invention are tested in an in vitro phospholipase A2 assay to determine the ability of the compounds to inhibit the biosynthesis of platelet-activating factor and LTB4 in purified human neutrophils.
(§16) A leukocyte enriched blood sample obtained from a healthy donor is procured by leukophoresis using a Haemonetics model 30+ blood processor (Biological Specialties, Inc., Lansdale, Pa.). The top "platelet-rich" layer is removed after a low speed spin (35 xg, 15 min, 25° C.) of the sample. The remaining cell suspension is centrifuged (400 xg, 10 min, 25° C.) to sediment the remaining cells. The supernatant is discarded and the cell pellet resuspended in 120 ml HBSS (without Ca^++ /Mg^++). The cell suspension is subjected to ficoll-hypaque sedimentation (Histopaque 1077, 400 xg, 30 min, 25° C). Contaminating erythrocytes are lysed by hypotonic shock (1 min). The cells are then washed once with 40 ml of HBSS and resuspended with HBSS (without Ca^++ /Mg^++) to a concentration of 2.5×10^7 cells/ml for further use. Greater than 95% purity is obtained, as assessed by microscopic examination.
(§17) One ml of human PMN (2.5×10^7 cells/ml) is incubated with vehicle or drugs (10 μl) for 10 minutes at 30° C. After preincubation, an equal volume of HBSS (1 ml) containing 2.4 mM CaCl2, 6 μM calcium ionophore A23187 and 50 μCi[^3 H]-acetate is then incubated at 30° C. for 15 minutes. An aliquot (100 μl) of the reaction mixture is taken out and mixed with 900 μl of 15% ethanol. LTB4 is extracted by using solid phase extraction on reverse phase C18 columns to remove excess [^3 H]-acetate and PAD. […] The quantity of LTB4 in the sample is obtained from RIA determination. […] [^3 H]-PAF is resolved from other phospholipids by TLC on RPC18 plates with a solvent system of chloroform:methanol:water (2:3:1, v/v/v) and is quantitated using a Berthold automated TLC linear analyzer.
(§18) Data presented are the mean +/- s.d. of the values relative to control A23187 stimulated cells for each experiment assayed in triplicate. Percent inhibition when used is calculated as: […]

Assay [2] relates to Platelet-Activating Factor Biosynthesis in Human Polymorphonuclear Neutrophils. The assay can be described thus: Inhibition of platelet-activating factor (PAF) biosynthesis in human polymorphonuclear neutrophils (in vitro phospholipase A2 assay). It is filed as cell-based. Particulars: Polymorphonuclear neutrophil, A23187 stimulated human PMN. Here is the method: as §15, §16, §17, §18

[3] abbreviates: 0.5 μM, mouse peritoneal macrophages.

Here are results for 6 molecules from patent US5468774A, “Tetronic, thiotetronic and tetramic acid derivatives as phospholipase A.sub ” (American Home Products Corporation, priority 1995, dated 1995).

By inhibition is commonly meant the drop in the measured response relative to a control, in per cent. For `O=C(NCCC1CCCCCCCCCCC1)C1=C(O)COC1=O` [Example 15, 4-Hydroxy-2-oxo-2,5-dihydro-furan-3-carboxylic acid-2-cyclododecyl-ethylamide], the inhibition at 0.5 µM with 5-lipoxygenase (setting [3]) worked out at 25.9%; in the assay with cyclooxygenase it was 52%.
For the molecule `O=C(CCC1CCCCCCCCCCC1)C1=C(O)CSC1=O` [Example 2, 3-(3-cyclododecyl-1-oxopropyl)-4-hydroxy-2(5H)-thiophenone], the inhibition at 10 µM at Human Synovial PLA2 is 53%; on Human Platelet PLA2 it was 18.2%; in assay [1], 69.6%; in assay [2], 79.2%. Besides, the inhibition at 0.5 µM stood at 76.1% with 5-lipoxygenase (setting [3]) and 97.1% with cyclooxygenase.
As for `O=C(CCC1CCCCCCCCCCC1)C1=C(O)COC1=O` [Example 1, 3-(3-Cyclododecyl-1-oxopropyl)-4-hydroxy-2(5H)-furanone], the inhibition at 10 µM on Human Synovial PLA2 is 41.9%; on Human Platelet PLA2 it was -3.7%; in assay [1] it was 95.1%; in assay [2], 84.3%. The results for the inhibition at 0.5 µM in the assay on 5-lipoxygenase (setting [3]) and in the assay on cyclooxygenase were 29% and 46.7%, respectively.
By IC50 is commonly meant the concentration that gives 50% inhibition. A higher IC50 goes with weaker potency. At 5-lipoxygenase (reference compounds), `CCCCCC#CCC#CCC#CCC#CCCCC(=O)O` [ETYA, reference compound] came in with a concentration for half-maximal inhibition (IC50) of 0.44 µM.
Regarding `CN1CC(O)=C(C(=O)CCC2CCCCCCCCCCC2)C1=O` [Example 3, 3-(3-cyclododecyl-1-oxopropyl)-1.5-dihydro-4-hydroxy-1-methyl-1H-pyrrolin-2-one], the inhibition at 0.5 µM in the assay with 5-lipoxygenase (setting [3]) amounted to 66.2%; in the assay with cyclooxygenase it was 75.9%. The inhibition at 10 µM in assay [1] amounted to 90.4%; in assay [2], 64.4%.
In the case of `O=C(COCC1CCCCCCCCCCC1)C1=C(O)CSC1=O` [Example 16], the “LTC4 % Inhibition” value in the assay on 5-lipoxygenase (setting [3]) was 33.0%. Further, the “PGE2 % Inhibition” value in the assay with cyclooxygenase (0.5 μM) came to 77.0%.
